Reference: patent US11214803B2, “Modulators of YAP1 expression” (Ionis Pharmaceuticals, Inc., priority 2019, dated 2022)
Strand notation (5' to 3'): a small letter for the sugar, then the base; units joined by * are phosphorothioate-linked, units joined directly phosphodiester-linked; [ ] holds rarer units or linkages, { } end groups; capitals alone tell only the bases. k = constrained ethyl (cEt); [5mC] = 5-methylcytosine; d = 2'-deoxy (DNA)

Tested on: Yap1 mRNA
Assay: Antisense inhibition of human Yap1 in A-431 cells by cEt gapmers, single dose (Example 1, RTS4814)
Assay type: cell-based
Conditions: A-431 cells, 5,000 cells per well, free uptake, 2,000 nM modified oligonucleotide, approx. 48 hours, RTS4814, normalized to RIBOGREEN; Table 3
How it was run: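 Free uptake of 2,000 nM 3-10-3 cEt gapmer (16-mer, full phosphorothioate, 5-methylcytosines) in A-431 cells for ~48 h. Yap1 mRNA quantified by qRT-PCR with set RTS4814, normalized to total RNA (RiboGreen), and expressed as % of untreated control; asterisked values target the amplicon region.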

Row | Substance | YAP1 (% UTC)
1 | 715597 (antisense k[5mC]*kT*kG*dG*dT*dT*d[5mC]*dA*dT*dG*dG*d[5mC]*dT*kG*kA*kA) [Compound 715597] | 89
2 | 715465 (antisense kG*kT*k[5mC]*d[5mC]*dA*d[5mC]*dA*dT*dT*dT*dG*dT*d[5mC]*k[5mC]*k[5mC]*kA) [Compound 715465] | 91
3 | 715543 (kA*k[5mC]*kT*dA*d[5mC]*dT*dT*dG*dA*dA*dG*dA*dA*k[5mC]*kT*kA; antisense) [Compound 715543] | 72
4 | 715609 (antisense kT*kG*kT*dG*dT*dA*dG*dG*d[5mC]*dT*dG*dA*d[5mC]*kT*kT*kA) [Compound 715609] | 56
5 | 715411 (kG*k[5mC]*kA*dT*d[5mC]*dA*dG*dT*dA*d[5mC]*dT*dG*dG*k[5mC]*k[5mC]*kT; antisense) [Compound 715411] | 94
6 | 715441 (antisense k[5mC]*kT*k[5mC]*dT*dG*dG*dT*dT*d[5mC]*dA*dT*dG*dG*k[5mC]*kA*kA) [Compound 715441] | 57

Same assay, conditions: Table 1; A-431 cells, free uptake, 2,000 nM, approximately 48 hours, RTS4814; Yap1 mRNA relative to untreated control cells

Row | Substance | YAP1 (% UTC)
7 | 715430 (kA*kT*k[5mC]*d[5mC]*dT*dG*dA*dG*dT*d[5mC]*dA*dT*dG*kG*k[5mC]*kT; antisense) [Compound 715430] | 118
8 | 715568 (kA*kA*kG*dG*dT*dA*dG*dG*dA*dT*dA*dA*dA*kT*kG*kA; antisense) [Compound 715568] | 116
9 | 715622 (antisense kA*kG*kT*dA*dA*dA*dA*dA*dA*dT*dA*dA*dG*kA*k[5mC]*kG) [Compound 715622] | 137
10 | 715598 (antisense k[5mC]*k[5mC]*k[5mC]*dA*dA*dG*d[5mC]*dT*dA*d[5mC]*d[5mC]*d[5mC]*dA*kA*kG*kA) [Compound 715598] | 103

Same assay, conditions: Table 2; A-431 cells, free uptake, 2,000 nM, approximately 48 hours, RTS4814; Yap1 mRNA relative to untreated control cells

Row | Substance | YAP1 (% UTC)
11 | 715557 (kG*kG*kA*dA*dG*dT*dT*dA*dT*dT*d[5mC]*dA*dG*k[5mC]*kA*kG; antisense) [Compound 715557] | 46
12 | 715599 (antisense kT*kT*k[5mC]*d[5mC]*d[5mC]*dA*dA*dG*d[5mC]*dT*dA*d[5mC]*d[5mC]*k[5mC]*kA*kA) [Compound 715599] | 82
13 | 715488 (antisense k[5mC]*kT*kA*dT*dT*dA*d[5mC]*dT*dT*d[5mC]*dA*dT*dA*kG*k[5mC]*kT) [Compound 715488] | 66
14 | 715542 (kT*kA*k[5mC]*dT*dT*dG*dA*dA*dG*dA*dA*d[5mC]*dT*kA*kT*kT; antisense) [Compound 715542] | 120
15 | 715548 (kA*kG*kT*dT*dG*dT*dT*dG*dA*d[5mC]*d[5mC]*dA*dA*k[5mC]*kT*kA; antisense) [Compound 715548] | 117
16 | 715485 (antisense kA*kA*kT*dA*d[5mC]*dT*d[5mC]*dT*dT*dT*dG*dG*dA*kA*kA*k[5mC]) [Compound 715485] | 72
17 | 715629 (antisense kG*kA*kG*d[5mC]*d[5mC]*dT*dA*d[5mC]*d[5mC]*dT*dG*dA*d[5mC]*kA*kT*kT) [Compound 715629] | 112
18 | 715449 (antisense kT*kT*k[5mC]*dT*d[5mC]*dA*dA*dT*dT*d[5mC]*d[5mC]*dT*dG*kA*kG*kA) [Compound 715449] | 124
19 | 715524 (kA*k[5mC]*kT*dT*dT*dA*dA*dG*dA*dA*dG*dT*dA*kT*k[5mC]*kT; antisense) [Compound 715524] | 93
20 | 715566 (kT*kA*kG*dG*dA*dT*dA*dA*dA*dT*dG*dA*dA*kT*kT*kA; antisense) [Compound 715566] | 94
21 | 715623 (antisense k[5mC]*k[5mC]*kT*dA*dA*dG*dA*dG*dT*dA*dA*dA*dA*kA*kA*kT) [Compound 715623] | 113
22 | 715575 (k[5mC]*k[5mC]*kT*dT*dT*dA*d[5mC]*d[5mC]*dA*dA*dA*dA*d[5mC]*kG*kA*kG; antisense) [Compound 715575] | 134
